According to patent US8791158B2, “Methods of treating meibomian gland dysfunction” (GTX, Inc., priority 2010, dated 2014):
Where two headings read alike, the source gives them in different places. Marks after values point to notes of the source that are not given here.

Assays:
[1] = system: acute orchiectomized (ORX) rabbit model; assay: Oil-Red-O lipid staining score of Meibomian gland (eyelid) sections, Example 4; assay type: in vivo; settings: ORX rabbits, topical 2.5 mg/kg; scale 0-4 by % cells stained; sham 3.75, ORX vehicle 3.2
Experimental: At the end of the study, the animals were euthanatized. The left harderian and Meibomian glands were collected for lipid analysis and snap frozen using an ethanol:dry ice bath. Samples were stored at −80° C. until shipment for analysis. The right eyelids were embedded in OCT medium and shipped to Paragon Biosciences (Washington D.C.) for histology and Oil-red-O quantification of lipids. Images of three separate fields were taken from each eyelid at random and the amount of cells staining red in each field was scored using commercially available software. A scoring scheme was adopted with a scale of 0-4 to evaluate the staining intensities with 0=<1% cells stained, 1+ for 2-5% of cells stained, 2+=6-10% stain, 3+=11-20% staining, 4+ for >21% cells stained.
Oil-Red-O is a lipophilic dye that is commonly used to stain lipid containing cells in histological sections. The amount of Oil-Red-O stain in each section is proportional to the number of cells synthesizing or storing lipid. A relative scoring system was adopted to evaluate the differences in lipid content of the Meibomian gland sections from treated and untreated animals in the study. […] Upon treatment with Compound 2, the lipid staining was seen to increase to that of the intact animals (score=3.8).

[2] = system: orchiectomized (ORX) rabbits; assay: Dose effect on palmitate:stearate ratio in tears, harderian and Meibomian glands, Example 5; assay type: in vivo, rabbit; settings: for Palmitate:stearate ratio in Meibomian gland / Palmitate:stearate ratio in harderian gland / Palmitate:Stearate Ratio in Tears: ORX rabbits; for Palmitate:stearate ratio in Meibomian gland / Palmitate:stearate ratio in harderian gland: mean; for Increase of lipid (palmitate:stearate) ratio in harderian glands: topical 1.25 mg/kg (highest dose tested); for Change in Meibomian gland lipids / Dose dependence of palmitate:stearate ratio in harderian glands / Dose dependence of palmitate:stearate ratio in tears: topical 0.625 and 1.25 mg/kg; for Palmitate:Stearate Ratio in Tears: day 15, mean
Text: The goal of this study was to determine the effect of dosage amounts of Compounds 1 and 2 on tear composition.
Thirty New Zealand white rabbits weighing approximately 3 lbs were allowed to acclimate for two weeks before the start of the study Animals were weighed on day 0 of the study, randomized according to body weight and allotted to the following orchiectomized (ORX) dose groups:
Surgeries for the study were staggered to limit the maximum number of surgeries per day to six. One animal from each group was entered into the study every day and castration was performed as described below. Animals were premedicated with glycopyrrolate (0.02 mg/kg) and anesthesia was induced with a combination of ketamine (15 mg/kg): medetomidine (0.25 mg/kg). Anesthesia was maintained with isoflurane (1 liter/hr). Orchiectomy was performed using a scrotal incision. Animals were reversed from anesthesia using atipamezole (1 mg/kg) SQ. Analgesia was provided with buprenorphine (0.05 mg/kg) SQ immediately after the animal's regained sternal recumbency.
(§1) Immediately after recovery from anesthesia, the animals were dosed with the appropriate test articles as indicated above. Drug dosing was performed once daily for 14 d. Blood samples were collected on day 11 of dosing at 0, 30, 60, 120, 240 and 1440 minutes post administration and to plasma separated for LCMS analysis of parent drug concentrations. Tears were collected using Schirmer tear strips (Alcon, Tex.) on day 0 before surgery and 24 hours after the last administration of drug (day 15). The tears were stored at −80° C. until shipment for lipid analysis. Lipids were hydrolyzed, extracted from the Schirmer strips, derivatized, and subjected to GC-FID to evaluate the lipid composition. The samples were evaluated for the presence of 28 saturated and unsaturated fatty acids that included methyl caprate (C10:0), methyl laurate (C12:0), methyl 11-dodecenoate (C12:1), methyl myri state (C14:0), methyl myristoleate (C14:1), methyl palmitate (C16:0), methyl palmitoleate (C16:1), methyl stearate (C18:0), methyl oleate (C18:1), methyl vaccenate (C18:1), methyl linoleate (C18:2), methyl gamma linoleate (C18:3), methyl linoleate (C18:3), methyl arachidate (C20:0), methyl 11-eicosenoate (C20:1), methyl 11,14 eicosadinoate (C20:2), methyl 8,11,14 eicosatrienoate (C20:3), methyl eicosapentaenoate (C20:5), methyl behenate (C22:0), methyl erucate (C22:1), methyl 13,16 docosaenoate (C22:2), methyl docosatetraenoate (C22:4), methyl docosapentaenoate (C22:5), methyl docosahexaenoate (C22:6), methyl lignocerate and (C24:0), methyl nervonate (C24:1). Area under the curve for each individual peak was determined using the GC ChemStation software. To normalize for the tear content, the lipid composition was expressed as a ratio of the lipid that was most affected by castration (palmitate) to one which remained relatively constant (stearate).
At the end of the study, the animals were euthanatized. The harderian and Meibomian glands were collected for lipid analysis and snap frozen using an ethanol: dry ice bath. Samples were stored at −80 C until ready to ship for analysis.
Lipids in rabbit tears are derived from secretions of the harderian and Meibomian glands. Lipid content in the glands was assayed using GCMS. […] The lipid ratio was increased by more than 2-fold by Compound 1 (1.25 mg/kg), while the effect of Compound 2 was even greater with an almost 3-fold increase in the lipid ratio seen at the highest dose tested (1.25 mg/kg).

[3] = Pharmacokinetic analysis of rabbit plasma after topical dosing, Example 5; assay type: in vivo; settings: for Amount of drug absorbed into systemic circulation at lower doses compared to exposure at 2.5 mg/kg: lower topical doses vs 2.5 mg/kg (Table 6); for AUC: rabbit, plasma, topical or ocular, day 11, read-out: Systemic AUC
Experimental: as §1
Plasma samples collected after dosing were analyzed using an LCMS/MS method. Briefly, plasma samples were prepared by protein precipitation extraction. (S)—N-(4-Cyano-3-(trifluoromethyl)phenyl)-3-(4-chlorophenoxy)-2-hydroxy-2-methylpropanamide was used as internal standard. The analysis of Compound 1 and Compound 2 was performed using an LC-MS/MS system consisting of an Agilent 1100 HPLC with an MDS/Sciex 4000 Q-Trap™ mass spectrometer. The separation was achieved using a C18 analytical column (Alltima™, 2.1×100 mm, 3 μm) protected by a C18 guard column (SecurityGuard™ 4.0×2.0 mm ID, Phenomenex). Mobile phase consisted of 60% acetonitrile, 40% water and 0.1% formic acid. Mobile phase was delivered at a flow rate of 0.3 mL/min Multiple reaction monitoring (MRM) scans were performed using curtain gas and a source temperature of 500° C. Molecular ions were formed using an ion spray voltage of −4500 V. Product ions were formed in nitrogen gas at a declustering potential of −55 V (Compound 1), −64 V (Compound 2), and −78 V (Internal standard) and collision energy of −24.0 V (Compound 1, m/z 388.0→117.9), −26.0 V (Compound 2, m/z 406.1→135.9), and −22.4 V (Internal standard, m/z 396.9→241.0). The plasma concentration—time data were analyzed by non-compartmental methods using WinNonlin (Version 3.1, Pharsight Corporation, Mountain View, Calif., USA). The area under the plasma concentration—time curve from time zero to infinity (AUC) was calculated by the trapezoidal rule with extrapolation to time infinity.
Systemic exposures after topical administration of the blood was determined in peripheral blood samples obtained at 30, 60, […], 240 and 1440 minutes after drug administration on day 11 of the study.

Compound	Oil-Red-O score [1]	Palmitate:stearate ratio in Meibomian gland ([2]; topical 0.625 mg/kg)	Palmitate:stearate ratio in harderian gland ([2]; topical 0.625 mg/kg)	Palmitate:stearate ratio in Meibomian gland ([2]; topical 1.25 mg/kg)	Palmitate:stearate ratio in harderian gland ([2]; topical 1.25 mg/kg)	Increase of lipid (palmitate:stearate) ratio in harderian glands [2]	Change in Meibomian gland lipids [2]	Dose dependence of palmitate:stearate ratio in harderian glands [2]	Dose dependence of palmitate:stearate ratio in tears [2]	Amount of drug absorbed into systemic circulation at lower doses compared to exposure at 2.5 mg/kg [3]	AUC ([3]; 0.625 mg/kg, topical 0.625 mpk) [µM·h]	AUC ([3]; 1.25 mg/kg, topical 1.25 mpk) [µM·h]	Palmitate:Stearate Ratio in Tears ([2]; topical 0.625 mg/kg once daily 14 d)	Palmitate:Stearate Ratio in Tears ([2]; topical 1.25 mg/kg once daily 14 d)
C[C@](O)(COc1ccc(C#N)cc1)C(=O)Nc1ccc(C#N)c(C(F)(F)F)c1 [Compound 1, (S)—N-(4-Cyano-3-(trifluoromethyl)phenyl)-3-(4-cyanophenoxy)-2-hydroxy-2-methylpropanamide]	3.4	3.29	3.45^a,b	3.68	4.87^a,b	more than 2 fold	No statistically significant change	dose dependent increase	no significant dose dependent changes	⅛^th	2.87	3.99	–	–
C[C@](O)(COc1ccc(C#N)c(F)c1)C(=O)Nc1ccc(C#N)c(C(F)(F)F)c1 [Compound 2, (S)—N-(4-cyano-3-(trifluoromethyl)phenyl)-3-(4-cyano-3-fluorophenoxy)-2-hydroxy-2-methylpropanamide]	3.8	3.36	6.09^a,b	3.31	5.30^a,b	~3 fold	No statistically significant change	dose dependent increase	dose dependent increase	¼^th	3.2	6.92	2.67^a,b	3.93^a,b
